Format in all cases: functional, cell-based
One assay deals with MCF7. In words: Antiproliferative activity against human MCF7 cells assessed as reduction in cell viability incubated for 48 hrs by MTS assay. As to conditions: MCF7, 48 h. Background: Tetrazolium dyes change colour on reduction, which living cells bring about.
Another assay has as its system SMMC-7721. In words: Antiproliferative activity against human SMMC7721 cells assessed as reduction in cell viability incubated for 48 hrs by MTS assay. As to conditions: SMMC-7721, 48 h.
For a further assay, the system named is HL-60. In words: Antiproliferative activity against human HL60 cells assessed as reduction in cell viability incubated for 48 hrs by MTS assay. As to conditions: HL-60, 48 h.
For a further assay, the system named is SW480. Kind of assay: Antiproliferative activity against human SW480 cells assessed as reduction in cell viability incubated for 48 hrs by MTS assay. As to conditions: SW480, 48 h.
For another assay, the system named is A549. In words: Antiproliferative activity against human A549 cells assessed as reduction in cell viability incubated for 48 hrs by MTS assay. As to conditions: A549, 48 h.

pIC50: −log10 of the molar value.

Consider 27 compounds from ChEMBL document CHEMBL4340516, “Synthesis and antitumor activity of novel steroidal imidazolium salt derivatives” (Eur J Med Chem, 2019).

A word on the pIC50: it is −log10 of the IC50, conventionally taken in molar units. As for `C[C@@H]1CC[C@@]2(OC1)O[C@H]1C[C@H]3[C@@H]4CC=C5C[C@@H](n6cc[n+](Cc7ccccc7Br)c6)CC[C@]5(C)[C@H]4CC[C@]3(C)[C@H]1[C@@H]2C`, the negative-log IC50 (pIC50) in the assay on MCF7 is 5.73; in the assay on SMMC-7721 it was 5.64; in the assay on HL-60, 6.04; with SW480, 5.27; in the assay with A549, 5.52.

In the case of `CC(C)CCC[C@@H](C)[C@H]1CC[C@H]2[C@@H]3C[C@H](n4ccnc4)[C@]45C[C@H]4CC[C@]5(C)[C@H]3CC[C@]12C`, the pIC50 with MCF7 was < 4.70; with SMMC-7721 it was 5.67; in the assay on HL-60, 5.70; in the assay on SW480 it was 4.78; in the assay with A549, 4.93.

`CC(C)CCC[C@@H](C)[C@H]1CC[C@H]2[C@@H]3C[C@H](n4cc[n+](CC(=O)c5ccc6ccccc6c5)c4)[C@]45C[C@H]4CC[C@]5(C)[C@H]3CC[C@]12C`: the pIC50 with MCF7 is 5.10; in the assay with SMMC-7721, 5.91; with HL-60 it was 5.62; in the assay on SW480 it was 5.20; in the assay on A549, 5.07.

For the compound `CC(=O)O[C@H]1CC[C@@]2(C)C(=CC[C@H]3[C@@H]4CC[C@H](n5cc[n+](CC(=O)c6ccc7ccccc7c6)c5)[C@@]4(C)CC[C@@H]32)C1`, the negative logarithm of the IC50 (pIC50) in the assay with MCF7 is 5.68; in the assay with SMMC-7721 it was 5.76; in the assay on HL-60 it was 5.90; in the assay with SW480, 5.35; in the assay on A549 it was 5.36.

`C[C@@H]1CC[C@@]2(OC1)O[C@H]1C[C@H]3[C@@H]4CC=C5C[C@H](n6cc[n+](CC(=O)c7ccc8ccccc8c7)c6)CC[C@]5(C)[C@H]4CC[C@]3(C)[C@H]1[C@@H]2C`: the pIC50 was 5.64 in the assay on MCF7; 5.72 with SMMC-7721; 6.02 in the assay on HL-60; 5.44 in the assay with SW480; 5.48 in the assay with A549.

`COc1ccc(C(=O)C[n+]2cn([C@@H]3CC[C@@]4(C)C(=CC[C@H]5[C@@H]6CC[C@H]([C@H](C)CCCC(C)C)[C@@]6(C)CC[C@@H]54)C3)c3ccccc32)cc1`: the pIC50 with MCF7 is 5.01; in the assay on SMMC-7721, 5.84; with HL-60, 5.36; in the assay on SW480, 5.00; in the assay on A549, 5.12.

With `C[C@]12CC[C@H]3[C@@H](CC=C4C[C@@H](O)CC[C@@]43C)[C@@H]1CC[C@@H]2n1cc[n+](CC(=O)c2cccc(Br)c2)c1`, the pIC50 with MCF7 was 5.14; in the assay with SMMC-7721 it was 4.83; with HL-60, 5.19; with SW480, 5.01; with A549, < 4.70.

On to `Cc1cc2nc[nH]c2cc1C` [DIMEDAZOL], for which the pIC50 in the assay on MCF7, in the assay on SMMC-7721, with HL-60, in the assay with SW480 and in the assay on A549 was < 4.70 in each case.

For the compound `Cc1cc2c(cc1C)[n+](CC(=O)c1ccccc1)cn2[C@@H]1CC[C@@]2(C)C(=CC[C@H]3[C@@H]4CC[C@H]([C@H](C)CCCC(C)C)[C@@]4(C)CC[C@@H]32)C1`, the pIC50 in the assay with MCF7 was 5.01; with SMMC-7721 it was 5.75; with HL-60 it was 6.55; in the assay with SW480 it was 4.98; with A549, 5.09.

`CC(C)CCC[C@@H](C)[C@H]1CC[C@H]2[C@@H]3CC=C4C[C@@H](n5cc[n+](Cc6ccccc6Br)c5)CC[C@]4(C)[C@H]3CC[C@]12C`: the pIC50 was 5.12 with MCF7; 5.84 with SMMC-7721; 5.63 with HL-60; 5.11 with SW480; 5.09 in the assay with A549.

As to `C[C@@H]1CC[C@@]2(OC1)O[C@H]1C[C@H]3[C@@H]4CC=C5C[C@H](n6ccnc6)CC[C@]5(C)[C@H]4CC[C@]3(C)[C@H]1[C@@H]2C`, the pIC50 with MCF7, with SMMC-7721, in the assay with HL-60, with SW480 and with A549 was < 4.70 in each case.

On to `CC(=O)O[C@H]1CC[C@@]2(C)C(=CC[C@H]3[C@@H]4CC[C@H](n5cc[n+](CC(=O)c6cccc(Br)c6)c5)[C@@]4(C)CC[C@@H]32)C1`, for which the pIC50 in the assay with MCF7 was 5.31; with SMMC-7721, 5.26; with HL-60, 5.36; in the assay with SW480 it was 5.14; in the assay on A549, 5.14.

Consider `C[C@]12CC[C@H](O)CC1=CC[C@@H]1[C@@H]2CC[C@]2(C)C(=O)CC[C@@H]12` [PRASTERONE], for which the pIC50 in the assay on MCF7, in the assay with SMMC-7721, in the assay with HL-60, with SW480 and with A549 was < 4.70 throughout.

`CC(C)CCC[C@@H](C)[C@H]1CC[C@H]2[C@@H]3CC=C4C[C@@H](O)CC[C@]4(C)[C@H]3CC[C@]12C` [CHOLESTEROL]: the negative-log IC50 (pIC50) in the assay on MCF7, in the assay on SMMC-7721, in the assay with HL-60, with SW480 and with A549 was < 4.70 each time.

As for `Cc1cc2ncn([C@@H]3CC[C@@]4(C)C(=CC[C@H]5[C@@H]6CC[C@H]([C@H](C)CCCC(C)C)[C@@]6(C)CC[C@@H]54)C3)c2cc1C`, the negative-log IC50 (pIC50) in the assay with MCF7 was < 4.70; with SMMC-7721, < 4.70; in the assay on HL-60 it was 6.74; with SW480 it was < 4.70; with A549, < 4.70.

Consider `CC(C)CCC[C@@H](C)[C@H]1CC[C@H]2[C@@H]3CC=C4C[C@H](n5cnc6ccccc65)CC[C@]4(C)[C@H]3CC[C@]12C`, for which the negative logarithm of the IC50 (pIC50) in the assay on MCF7, with SMMC-7721, with HL-60, in the assay on SW480 and with A549 was < 4.70 throughout.

With `c1c[nH]cn1` [IMIDAZOLE], the negative logarithm of the IC50 (pIC50) in the assay with MCF7, in the assay on SMMC-7721, in the assay with HL-60, with SW480 and with A549 was < 4.70 in each case.

Consider `COc1ccc(C(=O)C[n+]2ccn([C@H]3C[C@H]4[C@@H]5C[C@@H]6O[C@]7(CC[C@@H](C)CO7)[C@@H](C)[C@@H]6[C@@]5(C)CC[C@@H]4[C@@]4(C)CC[C@@H]5C[C@]534)c2)cc1`, for which the pIC50 was 5.35 with MCF7; 5.14 in the assay on SMMC-7721; 5.90 with HL-60; 5.15 in the assay with SW480; 5.14 with A549.

As to `C[C@@H]1CC[C@@]2(OC1)O[C@H]1C[C@H]3[C@@H]4CC=C5C[C@H](n6c[n+](CC(=O)c7ccc8ccccc8c7)c7ccccc76)CC[C@]5(C)[C@H]4CC[C@]3(C)[C@H]1[C@@H]2C`, the negative-log IC50 (pIC50) was 5.78 in the assay on MCF7; 5.88 in the assay with SMMC-7721; 5.96 in the assay on HL-60; 5.76 with SW480; 5.88 in the assay with A549.

With `C[C@]12CC[C@H]3[C@@H](CC=C4C[C@@H](O)CC[C@@]43C)[C@@H]1CC[C@@H]2n1ccnc1`, the pIC50 in the assay with MCF7, with SMMC-7721, in the assay on HL-60, with SW480 and with A549 was < 4.70 throughout.

With `CC(=O)O[C@H]1CC[C@@]2(C)C(=CC[C@H]3[C@@H]4CC[C@H](n5ccnc5)[C@@]4(C)CC[C@@H]32)C1`, the negative-log IC50 (pIC50) in the assay on MCF7, in the assay with SMMC-7721, in the assay with HL-60, in the assay on SW480 and with A549 was < 4.70 in each case.

`C[C@@H]1CC[C@@]2(OC1)O[C@H]1C[C@H]3[C@@H]4CC=C5C[C@H](n6cc[n+](Cc7ccccc7Br)c6)CC[C@]5(C)[C@H]4CC[C@]3(C)[C@H]1[C@@H]2C`: the pIC50 in the assay on MCF7 is 5.85; in the assay with SMMC-7721 it was 6.02; in the assay with HL-60 it was 6.37; in the assay on SW480, 5.78; in the assay on A549, 5.91.

As to `CC(C)CCC[C@@H](C)[C@H]1CC[C@H]2[C@@H]3CC=C4C[C@H](n5cc[n+](CC(=O)c6ccc7ccccc7c6)c5)CC[C@]4(C)[C@H]3CC[C@]12C`, the pIC50 in the assay on MCF7 was < 4.70; in the assay on SMMC-7721, 5.73; in the assay on HL-60 it was 4.97; with SW480 it was 4.98; in the assay on A549, 5.05.

Turning to `COc1ccc(C(=O)C[n+]2ccn([C@H]3CC[C@@]4(C)C(=CC[C@H]5[C@@H]6C[C@@H]7O[C@]8(CC[C@@H](C)CO8)[C@@H](C)[C@@H]7[C@@]6(C)CC[C@@H]54)C3)c2)cc1`, the negative-log IC50 (pIC50) with MCF7 is 5.71; in the assay with SMMC-7721, 5.79; in the assay on HL-60 it was 6.03; in the assay with SW480, 5.38; with A549, 5.92.

On to `c1ccc2[nH]cnc2c1` [BENZIMIDAZOLE], for which the pIC50 with MCF7, with SMMC-7721, in the assay on HL-60, in the assay on SW480 and in the assay on A549 was < 4.70 each time.

As to `C[C@]12CC[C@H]3[C@@H](CC=C4C[C@@H](O)CC[C@@]43C)[C@@H]1CC[C@@H]2n1cc[n+](CC(=O)c2ccccc2)c1`, the pIC50 in the assay on MCF7, in the assay on SMMC-7721, in the assay on HL-60, with SW480 and in the assay on A549 was < 4.70 throughout.

As for `COc1ccc(C(=O)C[n+]2ccn([C@H]3CC[C@H]4[C@@H]5CC=C6C[C@@H](OC(C)=O)CC[C@]6(C)[C@H]5CC[C@]34C)c2)cc1`, the pIC50 in the assay with MCF7 is 5.46; in the assay on SMMC-7721 it was 5.37; in the assay on HL-60 it was 5.66; in the assay on SW480 it was 5.22; in the assay on A549, 4.97.
